Assay results as given in patent US20100120738A1, “ANTI-APOPTOTIC BENZODIAZEPINE RECEPTOR LIGAND INHIBITORS” (priority 2006, published 2010).
Like-named read-outs stand apart in the source and are kept apart here.

Assays:
[1] = test system: cultured mesencephalic tissue slices; assay: MPP+ induced neurodegeneration in cultured mesencephalic tissue slices (LDH release); type: cell-based, rat; conditions: 20 μM MPP+; compound 100 nM, 1.0 μM, 10 μM; FIG. 17
Protocol: FIG. 17 is a graphical representation showing the effects of exemplary low molecular weight metalloporphyrin compounds of the present invention on MPP+ induced neurodegeneration in cultured mesencephalic tissue slices. Mesencephalic tissue slices were prepared from PND 3-5 rats and maintained in culture for 2 weeks. The tissue slices were incubated with a porphyrin compound as indicated on the x-axis for 6 hours before adding 20 μM MPP+ to induce neuronal apoptosis. Concentrations of each porphyrin compound tested were 100 nM ? 1.0 μM ? and 10 μM ? Following a further incubation for 48 hours, the slices were collected and the level of lactate dehydrogenase (LDH) released into the medium was determined.

[2] = test system: Bovine capillary endothelial cells; assay: Cytotoxicity/necrosis of non-irradiated cells (LDH release, field number); type: cell-based
Protocol: Bovine capillary endothelial cells were cultured on eight-chamber Labtek slides and exposed to ionizing radiation (20 Gy), which was calibrated using an X-ray exposure meter. […] In control experiments, cells either received no ionizing radiation (sham) or no compound. After 6 h incubation, the cells were fixed in methanol and stained with 5 μg/ml 4,6-diamidino-2-phenylindole (DAPI). DNA was visualized using a Nikon epifluorescence microscope, and apoptosis was scored and expressed as an apoptotic index (% apoptotic cells in a field of 100). […] Field number was also calculated for all other compounds tested as a control (results not shown).
To determine cytotoxicity of the compounds under these conditions, duplicate samples of the cells receiving a dose of compound at each concentration tested in the absence of a dose of ionizing radiation were assayed for release of LDH into the culture medium.

PC12 cells = assay: Protection against STS-induced apoptosis in PC12 cells (XTT viability assay); type: cell-based, rat
Protocol: Rat pheochromocytoma (PC12) cells were cultured in collagen-coated 96-well plates according to directions provided by the American Type Culture Collection. Staurosporine was added at various concentrations sufficient to induce apoptosis. Test compounds were added together with the staurosporine. Cells were incubated overnight at 37° C., 5% CO2. After 18-24 hours, test media was removed and cell viability was determined using the XTT viability assay described by Baker et al., J. Pharmacol. Exp, Therapeutics 284, 215-221, 1998, the contents of which are incorporated herein by reference.

[3] = Oral bioavailability in vivo, plasma levels by LC-MS/MS after intragastric gavage; parameters: species or system rat
Protocol: FIG. 18 is a graphical representation showing the bioavailability in vivo for the compounds {[{(Porphine-5,15-diyl)bis[cyclopropyl-diyl]}](2-)-N^21,N^22,N^23,N^24} manganese(III) acetate (EUK-418) and {[{(Porphine-5,15-diyl)bis[benzyl-diyl]}](2-)-N^21,N^22,N^23,N^24} manganese(III) acetate (EUK-423) in rats. Fasted and fed Sprague-Dawley rats were dosed by intragastric gavage with either 4 mg/kg EUK-418 or 2 mg/kg EUK-423. At the times indicated on the x-axis, plasma was obtained from the animals and the concentrations of compounds determined by LC-MS/MS.
Fasted and fed Sprague-Dawley rats were dosed by intragastric gavage with either 4 mg/kg EUK-418 or 2 mg/kg EUK-423. At time points up to 7 hr post-administration, animals were sacrificed, their blood collected over heparin, plasma samples prepared by centrifugation, and plasma levels of the compounds were determined by LC-MS/MS.

[4] = Superoxide dismutase (SOD) activity; type: biochemical
[5] = test system: Bovine capillary endothelial cells; assay: Protection against radiation-induced apoptosis (DAPI apoptotic index); type: cell-based; conditions: low doses; FIG. 13 and FIG. 14
Protocol: Bovine capillary endothelial cells were cultured on eight chamber Labtek slides and exposed to ionizing radiation (20 Gy) for 6 hours. After this time, cells were either left untreated or treated with compound at the concentration indicated on the x-axis. Cells were then fixed in methanol and stained with 5 μg/ml DAPI and DNA was visualized using a Nikon epifluorescence microscope, and apoptosis scored and expressed as an apoptotic index according to the percentage of apoptotic cells in a field of 100 cells. Open bars indicate apoptotic index following irradiation. Hatched bars indicate apoptotic index for control cells not receiving a dose of ionizing radiation.
Bovine capillary endothelial cells were cultured on eight-chamber Labtek slides and exposed to ionizing radiation (20 Gy), which was calibrated using an X-ray exposure meter. […] In control experiments, cells either received no ionizing radiation (sham) or no compound. After 6 h incubation, the cells were fixed in methanol and stained with 5 μg/ml 4,6-diamidino-2-phenylindole (DAPI). DNA was visualized using a Nikon epifluorescence microscope, and apoptosis was scored and expressed as an apoptotic index (% apoptotic cells in a field of 100).

[6] = Stability in USP simulated gastric fluid (SGF); type: in vitro ADME; conditions: 37° C., pH approx. 1.2
From the text: Aliquots of SGF were withdrawn and intact compound quantitated by HPLC-UV.

[7] = Brain uptake (brain level over plasma level); type: in vivo; conditions: above 20 ul/g indicates delivery across the blood-brain barrier
Protocol: In further studies, compounds are administered orally to animals as described above, or alternatively, by daily i.p. injection for up to five days at concentrations of about 0.3 mg/kg body weight, 3.0 mg/kg and 30 mg/kg. The animals are then sacrificed and their brains removed and snap-frozen in liquid nitrogen. The brains are homogenized in methanol containing 5% TCA, and the soluble fraction is prepared by centrifugation.
Levels of compounds in the brain tissue are determined by LC-MS (HPLLC, Waters; Mass Spectrometer, Micromass Quattro). The half-life of each compound administered to the animals is determined over a period of time from about 5 minutes up to about 2 days.
Brain bioavailability is determined by calculating brain uptake at all time points. Brain uptake is the ratio of brain levels (as moles/g tissue) over plasma levels (as […] and is expressed as ul/g. One gram of brain tissue contains approximately 20 ul of plasma. Thus, any brain uptake value above 20 ul/g is indicative of delivery across the blood-brain barrier to the brain parenchyma. For example, the brain uptake values for EUK-418 are in excess of about 100 ul/g.

[8] = Lipophilicity by octanol partitioning; type: physicochemical; conditions: octanol-water
Protocol: To indicate the likelihood that the compounds will cross lipid membranes and be absorbed once administered by oral means, their lipophilicities were determined by octanol partitioning. […] Quantitation was performed by HPLC-UV.

SMILES: C1=Cc2nc1cc1ccc([n-]1)c(C1CC1)c1nc(cc3ccc([n-]3)c2C2CC2)C=C1.CC(=O)[O-].[Mn+3] [EUK-418, {[{(Porphine-5,15-diyl)bis[cyclopropyl-diyl]}](2-)-N^21,N^22,N^23,N^24} manganese(III) acetate]
- prevention of cytotoxicity induced by MPP+ [1]: prevent cytotoxicity
- necrosis at the protective concentration ([2]; 3 μM EUK-418, about 3-10 μM EUK-423): failed to induce noticeable necrosis
- concentration causing significant increase in field number for control cells, indicating cytotoxicity ([2]; control cells without ionizing radiation): ≥ 30 µM
- effect on staurosporine-induced apoptosis of PC12 cells (PC12 cells; FIG. 11): effectively reduce apoptosis
- effect on staurosporine-induced apoptosis of PC12 cells (PC12 cells; FIG. 12, at up to about 5 μM concentration, toxicity blunts protection at high concentrations): effectively reduce apoptosis
- effect of fasting of animals on plasma concentration ([3]; 4 mg/kg intragastric gavage): increase plasma concentration
- plasma concentration to which compound declined for the assayed period ([3]; 4 mg/kg intragastric gavage, fasted rats, up to 7 hr): about 100 ng/ml
- plasma time course ([3]; intragastric gavage, 4 mg/kg EUK-418 or 2 mg/kg EUK-423): increased rapidly in serum of fasted rats
- found in plasma / bioavailable after oral administration ([3]; intragastric gavage, 4 mg/kg EUK-418 or 2 mg/kg EUK-423, fasted and fed rats): bioavailable in vivo
- IC50 ([4]; cuvette format, read-out: Cuvette IC50): 8.28 µM
- IC50 ([4]; microplate format, read-out: Microplate IC50): 0.382 µM
- protection of cells exposed to ionizing radiation [5]: protected
- Percentage remaining after 90 mins in SGF [6]: 92.2%
- brain uptake value (brain level / plasma level) [7]: > 100 µL/g
- Log10 P value [8]: 0.548 ± 0.009
- P value (octanol partitioning coefficient) [8]: 3.53 ± 0.14
